Measured values from paper PMC9490176 (Frontiers in Pharmacology, 2022).
Like-named read-outs stand apart in the source and are kept apart here.

How the values were obtained:
[1] = Stability evaluation in rat plasma (UPLC-MS/MS method validation); assay type: in vitro ADME; details: n = 6
Text: The test method was extensively verified regarding precision, accuracy, and stability, according to the EMA (European Medicines Agency) 2011 and FDA (Food and Drug Administration) 2018 criteria. In six replicates, quality control (QC) samples were generated at low, medium, and high concentrations and were utilized to validate the procedure. This method was designed to conform to EMA and FDA regulatory requirements for bioanalytical methods.

[2] = In vivo pharmacokinetics of pyrotinib in rats with or without azole pretreatment; set-up: species or system Sprague-Dawley rats; details: rat; for AUC(0-inf) / AUC(0-t) / CL/F / Cmax / Vd/F: male, Sprague-Dawley, plasma, po, 8 mg/kg; for AUC(0-inf) / AUC(0-t) / CL/F / Cmax / Vd/F / MRT(0-t) / MRT(0-∞) / Tmax / t1/2: 8 mg/kg pyrotinib oral; for AUC(0-inf) / AUC(0-t) / CL/F / Cmax / MRT(0-t) / MRT(0-∞) / Tmax / t1/2: n = 6; for Vd/F: n = 6, read-out: Vz/F
Experimental: Male Sprague-Dawley rats (180–220 g) were supplied by the Experimental Animal Center of Wenzhou Medical University. The animals were placed in a controlled environment of 20–26°C and 55 ± 15% relative humidity under a 12 h light-dark cycle. Except for the 12-h fasting period before the PK study, all rats were fed a standard rodent diet and freely consumed tap water. All experimental procedures and protocols were reviewed and approved by the Animal Care and Use Committee of the Wenzhou Medical University (No. wydw 2019-650), following the Guidelines for The Care and Use of Laboratory Animals. […] After the last administration of the three azoles or 0.5% CMC-Na (control group), a single dose of 8 mg/kg pyrotinib was administered orally to all rats in each group. Each group consisted of 6 rats. The azole antifungal medication was dissolved in 0.5% carboxymethylcellulose sodium solution (CMC-Na). […] The plasma was obtained by centrifuging the blood samples at 4000 rpm for 10 min at 4°C and stored at −80°C until analysis. The frozen plasma samples were thawed at room temperature and uniformly mixed; 50 μL of plasma sample was removed and mixed with 150 μL acetonitrile-midazolam solution (containing midazolam 200 ng/ml) to precipitate the proteins, followed by vortexing for 30 s and centrifuging at 13,000 rpm for 5 min. Then 150 μL of the supernatant was collected and placed into UPLC vials with 2 μL of sample was subjected to UPLC-MS/MS analysis. GraphPad Prism 7.0 software (GraphPad Software Inc.) was used to calculate the enzyme kinetic parameters of substrates which include Vmax, Km, IC50, Ki, and αKi values. The enzyme inhibition mode was obtained using the Linear Lineweaver-Burk plots. The PK characteristics, maximal plasma concentration (Cmax), time to peak plasma concentration (Tmax), apparent volume of distribution (Vz/F), area under the plasma concentration-time curve (AUC), elimination half-life (t1/2), plasma clearance (Cl/F), and mean residence time (MRT), were calculated using DAS (Drug and Statistics) software (Version 3.2.8, The People’s Hospital of Lishui, China). The one-way ANOVA and a Dunnet’s multiple range test were used for the statistical comparisons within groups with SPSS software (Version 25.0; SPSS Inc.). Statistical significance was set at p < 0.05.

[3] = set-up: method as in Ma et al., 2017; details: following the initial dose of 80–400 mg pyrotinib; ref Ma et al., 2017; cited from earlier work
[4] = after 40 mg/kg fluconazole for 7 days
[5] = after 40 mg/kg itraconazole for 7 days
[6] = after 40 mg/kg ketoconazole for 7 days

Structure (SMILES): CCOc1cc2ncc(C#N)c(Nc3ccc(OCc4ccccn4)c(Cl)c3)c2cc1NC(=O)/C=C/[C@H]1CCCN1C [pyrotinib, Pyrotinib]
- Stability in rat plasma, RE ([1]; 4°C, 24 h, high concentration (pyrotinib 4500, pyrotinib M1 0.75 μM)): 101.04%
- Stability in rat plasma, RE ([1]; 4°C, 24 h, low concentration (pyrotinib 15, pyrotinib M1 0.015 μM)): 102.40%
- Stability in rat plasma, RE ([1]; 4°C, 24 h, medium concentration (pyrotinib 150, pyrotinib M1 0.15 μM)): 107.05%
- Stability in rat plasma, RE ([1]; Room temperature, 6 h, high concentration (pyrotinib 4500, pyrotinib M1 0.75 μM)): 103.56%
- Stability in rat plasma, RE ([1]; Room temperature, 6 h, low concentration (pyrotinib 15, pyrotinib M1 0.015 μM)): 105.41%
- Stability in rat plasma, RE ([1]; Room temperature, 6 h, medium concentration (pyrotinib 150, pyrotinib M1 0.15 μM)): 106.18%
- Stability in rat plasma, RE ([1]; −80°C, 7 days, high concentration (pyrotinib 4500, pyrotinib M1 0.75 μM)): 100.79%
- Stability in rat plasma, RE ([1]; −80°C, 7 days, low concentration (pyrotinib 15, pyrotinib M1 0.015 μM)): 98.95%
- Stability in rat plasma, RE ([1]; −80°C, 7 days, medium concentration (pyrotinib 150, pyrotinib M1 0.15 μM)): 108.01%
- AUC(0-inf) [2, 4]: 29200 ng·h/mL
- AUC(0-t) [2, 4]: 29100 ng·h/mL
- CL/F [2, 4]: 4.83 mL/min/kg
- Cmax [2, 4]: 4290 ng/mL
- Vd/F [2, 4]: 1.09 ± 0.21 L/kg
- AUC(0-inf) [2, 5]: 18000 ng·h/mL
- AUC(0-t) [2, 5]: 18000 ng·h/mL
- CL/F [2, 5]: 7.5 mL/min/kg
- Cmax [2, 5]: 3000 ng/mL
- Vd/F [2, 5]: 1 ± 0.58 L/kg
- AUC(0-inf) [2, 6]: 36500 ng·h/mL
- AUC(0-t) [2, 6]: 36300 ng·h/mL
- CL/F [2, 6]: 3.83 mL/min/kg
- Cmax [2, 6]: 4680 ng/mL
- Vd/F [2, 6]: 0.89 ± 0.24 L/kg
- AUC(0-inf) ([2]; control group (0.5% CMC-Na)): 17800 ng·h/mL
- AUC(0-t) ([2]; control group (0.5% CMC-Na)): 17800 ng·h/mL
- CL/F ([2]; control group (0.5% CMC-Na)): 7.67 mL/min/kg
- Cmax ([2]; control group (0.5% CMC-Na)): 3060 ng/mL
- Vd/F ([2]; control group (0.5% CMC-Na)): 0.81 ± 0.25 L/kg
- MRT(0-t) [2, 4]: 5.28 ± 0.24 H
- MRT(0-∞) [2, 4]: 5.37 ± 0.27 H
- Tmax [2, 4]: 3.83 ± 0.41 H
- t1/2 [2, 4]: 2.66 ± 0.15 H
- MRT(0-t) [2, 5]: 4.55 ± 0.36 H
- MRT(0-∞) [2, 5]: 4.56 ± 0.37 H
- Tmax [2, 5]: 4.00 ± 1.10 H
- t1/2 [2, 5]: 1.47 ± 0.63 H
- MRT(0-t) [2, 6]: 5.38 ± 0.38 H
- MRT(0-∞) [2, 6]: 5.47 ± 0.38 H
- Tmax [2, 6]: 4.00 ± 1.10 H
- t1/2 [2, 6]: 2.66 ± 0.20 H
- MRT(0-t) ([2]; control group (0.5% CMC-Na)): 4.32 ± 0.40 H
- MRT(0-∞) ([2]; control group (0.5% CMC-Na)): 4.32 ± 0.42 H
- Tmax ([2]; control group (0.5% CMC-Na)): 3.50 ± 1.23 H
- t1/2 ([2]; control group (0.5% CMC-Na)): 1.26 ± 0.54 H
- decrease of Cl/F compared to the control group ([2]; coadministrated with ketoconazole): approximately 50%
- decrease of Cl/F compared with control group ([2]; fluconazole group): 0.37 fold
- increase of AUC(0-t) compared with control group ([2]; fluconazole group): 0.63 fold
- increase of Cmax compared with control group ([2]; fluconazole group): 0.40 fold
- decrease of Cl/F compared with control group ([2]; ketoconazole group): 0.50 fold
- increase of AUC(0-t) compared with control group ([2]; ketoconazole group): 1.04 fold
- increase of Cmax compared with control group ([2]; ketoconazole group): 0.53 fold
- mean terminal half-life (t1/2) [3]: 11.4 to 15.9 h
- time required to attain maximum plasma concentration (Tmax) [3]: 3 to 5 h
